Data set [1] in a line: Whole-body clearance of indium-111 labeled electrophilic benzyl-EDTA derivatives. It counts as in vivo. The conditions noted are these: indium-111 labeled chelate, BALB/c mice; for apparent half-life, whole-body clearance: after tail-vein injection. How it is done:
FIG. 4 Whole-body clearance of indium-^111I labeled electrophilic derivatives of benzyl-EDTA from BALB/c mice after tail-vein injection. Here the objective was to find an electrophilic chelate that clears from the animal quickly when not captured by an engineered CHA255.
As reactive ligands, a small set of chelates bearing electrophilic para substituents (FIG. 3) that could react with cysteine were prepared. To be most useful, the electrophilic ligands should be stable in biological media so that they not react prematurely with common biological nucleophiles such as the cysteine on glutathione or in albumin (Geigy Scientific Tables Vol 3, C. Lentner, ed., Ciba-Geigy Ltd., Basel, Switz (1984)). The whole-body clearance of the radiolabeled chelates from mice was studied (FIG. 4 and Chmura, A. J., et al., J. Controlled Release 78:249-258 (2002)) to identify the electrophilic chelates that are unreactive in plasma in vitro, and which also quantitatively clear from live animals.

The test system of data set [2] is Fab S95C. The data set is described as follows: Covalent attachment of 111In-chelates to engineered Fab S95C (SDS-PAGE). The class given is binding. The conditions noted are these: physiological pH and temperature, raw culture medium with 10% fetal calf serum. How it is done: FIG. 5 Conjugation of electrophilic ^111In-benzyl-EDTA derivatives with engineered Fab S95C. Phosphorimage of 10-20% SDS-PAGE gel of samples of complete culture media incubated with ^111In-labeled (A) CABE, (B) CpABE, (C) AABE, and (D) ABE. The radiolabeled light chains migrate near 25 Kd.
To investigate whether either the S95C or the N96C Fab would bind irreversibly to its target, ^111In-labeled chelates bearing electrophilic groups were incubated at physiological pH and temperature with raw tissue culture medium from the cells expressing these recombinant proteins. The culture medium contained 10% fetal calf serum, representative of typical biological media.
The samples were analyzed by denaturing gel electrophoresis (SDS-PAGE). Separation under reducing and denaturing conditions on SDS-PAGE separates the light chain from the heavy chain of each Fab, functionally destroying the antibody-binding pocket. Chelates bound to the Fab but not covalently linked will dissociate because the antibody-binding pocket is no longer folded. […] However, a chelate that not only bound to a Fab but also covalently linked will be attached to the Fab light chain and migrate with it on SDS-PAGE.

The subject of data set [3] is Fab S95C. The data set is described as follows: Kinetics of covalent bond formation with Fab S95C. It counts as binding. The conditions noted are these: 22° C., pH 7.4. As for the experimental part:
FIG. 7 (a) Phosphorimage of a representative SDS-PAGE assay of the extent of permanent attachment of ^111In-AABE to the light chain of Fab S95C. (b)Kinetics of formation of the covalent bond between bound ^111In-AABE and Fab S95C, at 22° C., pH 7.4.
We explored the rate of covalent attachment of the AABE-^111In chelate to the S95C mutant, by monitoring the extent of reaction as a function of time. The covalent attachment was 50% complete in approximately 10 min at 22° C. (FIG. 7).

For a further data set, the system named is S95C Fab. The data set is described as follows: Competition assay: blocking covalent attachment of 111In-AABE. The class given is binding. Conditions: excess nonradioactive ABE-metal chelate. The source says:
(a) Competition ELISA curves. Different metal-ABE chelates compete with an immobilized indium chelate for binding Fab S95C. (b) Competitive binding of a series of metal-ABE chelates, measured by blocking the covalent attachment of ^111In-AABE to Fab S95C. SDSPAGE gel bands show increased labeling of the light chain with decreasing competition.
To further confirm that S95C Fab retained the ligand-binding specificity, we performed a competition assay to see whether nonradioactive ABE-indium, -iron, -cadmium, -scandium, or -gallium could block the covalent attachment of ^111In-AABE.

For another data set, the system named is antibody 2D12.5. The data set is described as follows: Competitive immunoassay (ELISA) of metal chelate binding. Also on record: species or system mouse. The conditions noted are these: reversible binding to parental 2D12.5. The source says: FIG. 9 Relative binding of metal-(S)NBD complexes to antibody 2D12.5. A representative set of competitive binding curves obtained from ELISA experiments. Distance between midpoints is related to difference between dissociation constants. Error bars (representing the standard error of the mean) are shown but are generally smaller than the data points.
FIG. 14 Binding of yttrium chelates with different stereochemistry to antibody 2D12.5, showing that the antibody binds a chelate with the side chain in the R configuration approximately one order of magnitude less well than the S configuration. […] Error bars are smaller than the data symbols. Data were generated by competitive ELISA.
A competitive immunoassay to measure the binding constants of various metal-(S)NBD complexes relative to the original Y^3+ complex (FIG. 9) was developed to assess the metal selectivity of antibody 2D12.5. Briefly, 2D12.5 was incubated at 37° C. in the presence of immobilized HSA-21T-Y-(S)BAD and a soluble metal-(S)NBD competitor (Y-(S)BAD was linked to human serum albumin via 2-iminothiolane). The metal-(S)NBD concentration was varied from μM to pM in order to determine the relative binding affinity of 2D12.5 for each metal chelate in comparison to Y-(S)NBD. […] Other antibodies that bind metal chelates do so with a strong preference for one or possibly two metals (Love, R. et al., Biochemistry 32, 10950-10959 (1993), and Khosraviani, M., et al., (2000) Bioconjugate Chem., 11, 267-277). For example, the (S)NBD chelate of group IIIB ion Sc(III) binds to the antibody with a much lower affinity (<1%) than the strongest binding rare earth complexes, perhaps because Sc(III) has a much smaller ionic radius (Meehan, P. R., et al., Coord. Chem. Rev., 181, 121145, and Shannon, R. D. (1976) Acta Crystallogr., Sect. A: Found. Crystallogr., A32, 751-767).

For a further data set, the system named is G54C mutant of 2D12.5. The data set is described as follows: Permanent binding to G54C, competitive 90Y-AABD attachment, SDS-PAGE. The conditions noted are these: 37° C. How it is done: FIG. 17 a) Scheme describing the permanent binding pair. b) Infinite binding is observed not only for ^90Y-AABD but also for ^111In-AABD, assayed by SDS-PAGE under denaturing conditions where only permanently bound complexes remain attached to the antibody.
FIG. 18 The G54C mutant was preincubated in triplicate with 10 μM AABD complexes of Y^3+, In^3+ or Cu^2+, a negative control N-(1-carbamoyl-2-(4-nitrophenyl)-ethyl)-acrylamide or N-(4-carboxymethylphenyl)-acrylamide, or just buffer, for 5 min, 20 min or 120 min at 37° C., pH 7.5. At the stated times ^90Y-AABD (1 μM) was added to each solution to compete for free G54C. Permanent binding was assayed by measuring band intensities after SDS-PAGE. a) Phosphorimage of gel. The fainter the bands, the greater the permanent binding by the unlabeled ligand. b) Crystal structures of Y-DOTA, In-DOTA-mono(p aminoanilide) (some atoms removed for clarity) and Cu-DOTA.
FIG. 19 a) Metal-AABD (10 μM) complexes were preincubated separately with aliquots of G54C for 5 min, followed by addition of 1 μM ^90Y-AABD, which competes for free G54C, and SDS-PAGE analysis. b) From quantitative phosphorimaging, the highest-affinity AABD complexes form permanent bonds with G54C with higher yields than more 3+weakly binding rare earth-AABD complexes whose ionic radii are slightly smaller (Lu Yb^3+) or larger (Ce^3+, La^3+) than ideal.
We were curious to see if an even weaker binder such as a copper chelate (KD˜10^−4 M for Cu-NBD) would bind irreversibly under ordinary conditions. We tested this by comparing the permanent binding of Y^3+-, In^3+-, and Cu^2+-AABD, using competitive ^90Y-AABD attachment as an indicator (FIG. 18). […] Weaker binding In-AABD blocks >50% of the sites after 5 min preincubation, and even more at later times. Very weakly binding Cu-AABD initially occupies only about 10% of the G54C sites under these conditions, but it has permanently attached to G54C in good yield after 2 hr, blocking>70% of the sites.

The next data set relates to G54C Fab. The data set is described as follows: Kinetics of permanent bond formation with G54C Fab. The class given is binding. As for the experimental part:
FIG. 21 Kinetics of permanent bond formation between G54C Fab (1 μM) and 10 μM ^90Y-labeled YAABD. The addition of a high concentration of Y-NBD, a reversibly binding competitor, after 6 min competitively blocks the re-binding of any Y-AABD that dissociates without forming a permanent bond. The experiment containing no competitor, on the other hand, allows any Y-AABD molecules initially bound in an unproductive mode to rebind in an orientation favorable for permanent covalent bond formation until a maximum is reached.
The question to be addressed was the probability that Y-AABD reacts with G54C the first time it forms a complex, instead of dissociating and rebinding. In the first experiment ^90Y-labeled Y-AABD (10 μM) was added to G54C Fab (1 μM) at 37° C., pH 7.5. Samples were withdrawn at various times and were immediately added to SAB, boiled and reduced under denaturing conditions to halt any further permanent bond formation. Samples were analyzed by SDS-PAGE, and the extent of permanent bond formation was determined by measuring the relative radioactivity of bands.
In a second experiment, performed in parallel, conditions were identical to the first except that the reversible competitor Y-NBD was added in vast excess (1 mM) relative to Y-AABD after 6 min, allowing labeled Y-AABD complexes to form bonds or dissociate, but competitively blocking any re-binding of Y-AABD to G54C.

Entries after “also recorded” stand apart in the source; their conditions may differ.

On to `C=CC(=O)Nc1ccc(C[C@@H](CN(CC(=O)O)CC(=O)O)N(CC(=O)O)CC(=O)O)cc1` [AABE, (S)-1-[p-(acrylamido)benzyl]-EDTA], for which, in data set [1], the “whole-body clearance” value is recorded as “showed the required clearance properties; also recorded: clears as completely—and almost as rapidly—as ABE” and the “apparent half-life, whole-body clearance” value is “about 4 h”. Further, the “covalent attachment to Fab S95C light chain” value with Fab S95C [2] (listed as 111In-AABE) was “reacted equally well”. The “covalent attachment to Fab S95C light chain” value in the data set on Fab S95C [2] (listed as AABE-^111In) is on record as “reacted with the S95C mutant of CHA255 to permanently tag the light chain”. Moreover, the “time to 50% complete covalent attachment” value with Fab S95C [3] is “approximately 10 min”.

In the case of `Nc1ccc(C[C@@H](CN(CC(=O)O)CC(=O)O)N(CC(=O)O)CC(=O)O)cc1` [ABE, (S)-1-[p-(amino)benzyl]-EDTA, reference compound], in data set [1], the “apparent half-life, whole-body clearance” value is on record as “about 4 h”. In the data set with Fab S95C [2], the “covalent attachment to Fab S95C light chain” value is given as “not”. Further, in the data set on S95C Fab, the “blocking of covalent attachment of 111In-AABE” value is “effectively blocks the reaction”.

As a reminder, the Kd is the free concentration of one partner at which half of the binding sites on the other are occupied at equilibrium, for simple one-to-one binding. Take `C=CC(=O)Nc1ccc(C[C@H]2CN(CC(=O)O)CCN(CC(=O)O)CCN(CC(=O)O)CCN2CC(=O)O)cc1` [Y-AABD, (S)-2-(4-acrylamidobenzyl)-DOTA]: the dissociation constant Kd with antibody 2D12.5 is 4 nM. Further, the “G54C sites blocked from 90Y-AABD” value in the data set on G54C mutant of 2D12.5 (10 μM complex, preincubation 5 min, pH 7.5) is given as more than 90%. In the data set on G54C mutant of 2D12.5 (pH 7.5, SDS-PAGE, listed as 90Y-AABD), the “permanent binding to G54C” value is “permanently and specifically attaches”. Besides, the “fraction of molecules reacting upon initial complex formation” value in the data set with G54C Fab is on record as “about half”.

(Values after patent publication US20060063209A1, “Engineered antibody fragment that irreversibly binds an antigen” (THE REGENTS OF THE UNIVERSITY OF CALIFORNIA, priority 2004, published 2006).)
